Test results published in patent US20040224917A1, “Compositions and methods for combination antiviral therapy” (GILEAD SCIENCES, INC., priority 2003, published 2004).
Counter-ions that a name gives are not always drawn.

Legend:
HIV-1 = settings: in combination with recombinant soluble CD4 castanospermine and recombinant interferon-α; cited from earlier work
HIV replication = settings: in combination with PMPA, d4T, ddC, nelfinavir, ritonavir, saquinavir; cited from earlier work
[1] = in tablets, six months at 40° C./75% RH, packaged and stored with desiccant
[2] = each dose regimen greater or equal to 200 mg, two weeks, monotherapy

Nc1nc(=O)n([C@@H]2CS[C@H](CO)O2)cc1F (single isomer, unassigned) [Emtricitabine]
viral suppression (HIV; [2]): ≥ 98% | viral suppression (log 10) (HIV; [2]): ≥ 1.75 log 10 | reduction of viral load, average (HIV; once-a-day dose of 200 mg): 99% | reduction of viral load, average (log 10) (HIV; once-a-day dose of 200 mg): 1.92 log 10

Cc1cn([C@H]2C[C@H](N=[N+]=[N-])[C@@H](CO)O2)c(=O)[nH]c1=O [AZT, 3′-azido, 3′-deoxythymidine]
synergy of antiviral activity in vitro (HIV-1): synergistic antiviral activity

CC(C)(C)C(=O)OCOP(=O)(COCCn1cnc2c(N)ncnc21)OCOC(=O)C(C)(C)C [Adefovir dipivoxil]
synergy of inhibition of HIV replication (HIV replication): minor to moderate synergistic inhibition

CC(C)OC(=O)OCOP(=O)(CO[C@H](C)Cn1cnc2c(N)ncnc21)OCOC(=O)OC(C)C [Tenofovir disoproxil fumarate, 9-[(R)-2-[[bis[[(isopropoxycarbonyl)oxy]methoxy]phosphinyl]methoxy]propyl]adenine fumarate (1:1)]
loss in % label strength (significant defined as ≧5% degradation) [1]: No significant loss
